Assay: molar heat capacity at constant pressure
Conditions: 101.33 kPa, Liquid

CCCCCCn1cc[n+](C)c1.O=S(=O)([O-])C(F)(F)F [1-hexyl-3-methylimidazolium trifluoromethanesulfonate]
Conditions	molar heat capacity at constant pressure [J/K/mol]
313.14 K, Large sample (1 g) DSC	517
315.15 K, Small sample (50 mg) DSC	526
318.15 K, Large sample (1 g) DSC	522
320.15 K, Small sample (50 mg) DSC	528
323.17 K, Large sample (1 g) DSC	525
325.15 K, Small sample (50 mg) DSC	530
328.13 K, Large sample (1 g) DSC	527
328.15 K, modulated-temperature differential scanning calorimetry MDSC	519
330.15 K, Small sample (50 mg) DSC	532
333.15 K, Large sample (1 g) DSC	528
333.15 K, modulated-temperature differential scanning calorimetry MDSC	522
335.15 K, Small sample (50 mg) DSC	536
338.15 K, modulated-temperature differential scanning calorimetry MDSC	524
338.16 K, Large sample (1 g) DSC	531
340.15 K, Small sample (50 mg) DSC	539
343.15 K, modulated-temperature differential scanning calorimetry MDSC	528
343.16 K, Large sample (1 g) DSC	534
345.15 K, Small sample (50 mg) DSC	541
348.15 K, modulated-temperature differential scanning calorimetry MDSC	530
348.16 K, Large sample (1 g) DSC	535
350.15 K, Small sample (50 mg) DSC	545
353.15 K, modulated-temperature differential scanning calorimetry MDSC	532
353.18 K, Large sample (1 g) DSC	539
355.15 K, Small sample (50 mg) DSC	548
358.12 K, Large sample (1 g) DSC	542
358.15 K, modulated-temperature differential scanning calorimetry MDSC	535
360.15 K, Small sample (50 mg) DSC	551
363.15 K, modulated-temperature differential scanning calorimetry MDSC	538
363.17 K, Large sample (1 g) DSC	545
365.15 K, Small sample (50 mg) DSC	554
368.15 K, Large sample (1 g) DSC	548
368.15 K, modulated-temperature differential scanning calorimetry MDSC	540
370.15 K, Small sample (50 mg) DSC	556
373.15 K, modulated-temperature differential scanning calorimetry MDSC	543
373.17 K, Large sample (1 g) DSC	550
375.15 K, Small sample (50 mg) DSC	559
378.15 K, modulated-temperature differential scanning calorimetry MDSC	544
378.17 K, Large sample (1 g) DSC	552
380.15 K, Small sample (50 mg) DSC	562
383.15 K, modulated-temperature differential scanning calorimetry MDSC	547
383.17 K, Large sample (1 g) DSC	555
385.15 K, Small sample (50 mg) DSC	565
388.15 K, modulated-temperature differential scanning calorimetry MDSC	549
388.16 K, Large sample (1 g) DSC	558
390.15 K, Small sample (50 mg) DSC	568
393.15 K, Large sample (1 g) DSC	560
393.15 K, modulated-temperature differential scanning calorimetry MDSC	552
395.15 K, Small sample (50 mg) DSC	571
398.15 K, modulated-temperature differential scanning calorimetry MDSC	554
398.18 K, Large sample (1 g) DSC	562
400.15 K, Small sample (50 mg) DSC	574
403.15 K, modulated-temperature differential scanning calorimetry MDSC	556
403.16 K, Large sample (1 g) DSC	564
405.15 K, Small sample (50 mg) DSC	577
408.13 K, Large sample (1 g) DSC	566
408.15 K, modulated-temperature differential scanning calorimetry MDSC	557
410.15 K, Small sample (50 mg) DSC	580
413.15 K, modulated-temperature differential scanning calorimetry MDSC	562
413.16 K, Large sample (1 g) DSC	569
415.15 K, Small sample (50 mg) DSC	583
418.15 K, Large sample (1 g) DSC	573
420.15 K, Small sample (50 mg) DSC	586
423.17 K, Large sample (1 g) DSC	572
425.15 K, Small sample (50 mg) DSC	589

CCCCCCCCn1cc[n+](C)c1.O=S(=O)([O-])C(F)(F)F [1-octyl-3-methylimidazolium trifluoromethanesulfonate]
Conditions	molar heat capacity at constant pressure [J/K/mol]
313.17 K, Large sample (1 g) DSC	588
315.15 K, Small sample (50 mg) DSC	604
318.14 K, Large sample (1 g) DSC	592
320.15 K, Small sample (50 mg) DSC	608
323.13 K, Large sample (1 g) DSC	595
325.15 K, Small sample (50 mg) DSC	612
328.13 K, Large sample (1 g) DSC	595
328.15 K, modulated-temperature differential scanning calorimetry MDSC	599
330.15 K, Small sample (50 mg) DSC	612
333.14 K, Large sample (1 g) DSC	595
333.15 K, modulated-temperature differential scanning calorimetry MDSC	603
335.15 K, Small sample (50 mg) DSC	616
338.14 K, Large sample (1 g) DSC	598
338.15 K, modulated-temperature differential scanning calorimetry MDSC	606
340.15 K, Small sample (50 mg) DSC	620
343.14 K, Large sample (1 g) DSC	599
343.15 K, modulated-temperature differential scanning calorimetry MDSC	609
345.15 K, Small sample (50 mg) DSC	623
348.15 K, modulated-temperature differential scanning calorimetry MDSC	612
348.17 K, Large sample (1 g) DSC	599
350.15 K, Small sample (50 mg) DSC	627
353.13 K, Large sample (1 g) DSC	601
353.15 K, modulated-temperature differential scanning calorimetry MDSC	616
355.15 K, Small sample (50 mg) DSC	631
358.15 K, Large sample (1 g) DSC	605
358.15 K, modulated-temperature differential scanning calorimetry MDSC	619
360.15 K, Small sample (50 mg) DSC	634
363.15 K, Large sample (1 g) DSC	610
363.15 K, modulated-temperature differential scanning calorimetry MDSC	622
365.15 K, Small sample (50 mg) DSC	637
368.15 K, Large sample (1 g) DSC	616
368.15 K, modulated-temperature differential scanning calorimetry MDSC	625
370.15 K, Small sample (50 mg) DSC	641
373.14 K, Large sample (1 g) DSC	617
373.15 K, modulated-temperature differential scanning calorimetry MDSC	628
375.15 K, Small sample (50 mg) DSC	644
378.12 K, Large sample (1 g) DSC	621
378.15 K, modulated-temperature differential scanning calorimetry MDSC	631
380.15 K, Small sample (50 mg) DSC	648
383.15 K, modulated-temperature differential scanning calorimetry MDSC	635
383.16 K, Large sample (1 g) DSC	626
385.15 K, Small sample (50 mg) DSC	652
388.15 K, Large sample (1 g) DSC	631
388.15 K, modulated-temperature differential scanning calorimetry MDSC	637
390.15 K, Small sample (50 mg) DSC	655
393.13 K, Large sample (1 g) DSC	636
393.15 K, modulated-temperature differential scanning calorimetry MDSC	640
395.15 K, Small sample (50 mg) DSC	658
398.15 K, modulated-temperature differential scanning calorimetry MDSC	642
398.17 K, Large sample (1 g) DSC	639
400.15 K, Small sample (50 mg) DSC	663
403.14 K, Large sample (1 g) DSC	642
403.15 K, modulated-temperature differential scanning calorimetry MDSC	645
405.15 K, Small sample (50 mg) DSC	666
408.15 K, modulated-temperature differential scanning calorimetry MDSC	648
408.18 K, Large sample (1 g) DSC	644
410.15 K, Small sample (50 mg) DSC	670
413.15 K, Large sample (1 g) DSC	647
413.15 K, modulated-temperature differential scanning calorimetry MDSC	651
415.15 K, Small sample (50 mg) DSC	673
418.18 K, Large sample (1 g) DSC	649
420.15 K, Small sample (50 mg) DSC	677
423.14 K, Large sample (1 g) DSC	651
425.15 K, Small sample (50 mg) DSC	680

c1ccccc1 [benzene]
Small sample (50 mg) DSC
Conditions	molar heat capacity at constant pressure [J/K/mol]
295.15 K	134.8
300.15 K	135.4
305.15 K	136.5
310.15 K	137.9
315.15 K	139.2
320.15 K	140.85
325.15 K	142.5
330.15 K	144.15
335.15 K	145.8
340.15 K	147.55
345.15 K	149.3
350.15 K	151.2

C1CCOC1 [tetrahydrofuran]
Small sample (50 mg) DSC
Conditions	molar heat capacity at constant pressure [J/K/mol]
180.15 K	105.5
185.15 K	105.6
190.15 K	105.8
195.15 K	106
200.15 K	106.3
205.15 K	106.5
210.15 K	106.7
215.15 K	107.2
220.15 K	107.6
225.15 K	107.9
230.15 K	108.5
235.15 K	109.2
240.15 K	109.8
245.15 K	110.6
250.15 K	111.5
255.15 K	112.4
260.15 K	113.4
265.15 K	114.4
270.15 K	115.5
275.15 K	116.6
280.15 K	117.9
285.15 K	119.2
290.15 K	120.3
295.15 K	121.7
300.15 K	123.1
305.15 K	124.5
310.15 K	126
315.15 K	127.3
320.15 K	128.8
325.15 K	130.5

O [water]
Small sample (50 mg) DSC
Conditions	molar heat capacity at constant pressure [J/K/mol]
305.15 K	74.95
310.15 K	74.96
315.15 K	74.9
320.15 K	74.93
325.15 K	75.01
330.15 K	75.09
335.15 K	75.11
340.15 K	75.23
345.15 K	75.31
350.15 K	75.43
355.15 K	75.53
360.15 K	75.59
365.15 K	75.72
370.15 K	75.8
